Values of other authors as cited in publication PMC4956526 (Bioconjugate chemistry, 2016).

Settings: ref 40 (Lau et al.)

Substance | subcutaneous bioavailability
semaglutide | 94%
liraglutide | 66%
